In US11786555B2, “RAR selective agonists in combination with immune modulators for cancer immunotherapy” (IO THERAPEUTICS, INC., priority 2017, dated 2023):

Key:
RARα = test: transactivation assay, agonist activity; details: RARα versus RARβ and RARγ, FIG. 1
From the text: Transactivation assays employ expression plasmids encoding the full length receptors RARα, RARβ, and RARγ. Reporter plasmids containing the herpes virus thymidine kinase promoter and the appropriate retinoic acid receptor response element (RAREs) are positioned upstream of an open coding region encoding firefly luciferase.

[1] = test system: H929 Luc+ cells with WT or Smo-KO stroma; test: subcutaneous xenograft model of MM-niche interactions, bioluminescence; format: in vivo, mouse
Experimental: FIG. 9 depicts bioluminescent images of mice showing tumor burden during 4 weeks of treatment with IRX (10 mg/kg), BTZ (0.5 mg/kg), or the combination. Anterior tumors consisted of a combination of MM.1S luciferase^+ cells and Smo^FI/FI BM stroma cells transduced with a control vector (WT BM stroma). Posterior tumors consisted of a combination of MM.1S luciferase^+ cells and Smo^FI/FI BM stroma cells transduced with Cre-recombinase (Smo KO BM stroma).
FIG. 10 depicts the fold change in bioluminescence (photons/second) of tumors during 4 weeks of treatment. The change in bioluminescence for each tumor […].
Mouse xenografts. 1×10^6 H929 Luc+ cells and 1×10^6 mouse BM stromal cells were resuspended in 100 μl […]®, diluted with RPMI (1:1), and injected subcutaneously into 16-week-old male NSG mice. After 4 days, treatment with BTZ (0.5 mg/kg i.p. twice weekly) and IRX (10 mg/kg i.p. daily) was initiated. Tumor burden was assessed by bioluminescence using the In Vivo Imaging System (PerkinElmer). For imaging, mice were exposed to 120 mg/kg D-luciferin via intraperitoneal injection […] before imaging and were anesthetized using isoflurane. Images were analyzed with Living Image Software, version 2.5 (PerkinElmer), and data were quantified as photons/second.
To study to what extent an RA-low environment created by the BM stroma and enhanced by MM cells via paracrine Hedgehog signaling contributes to BTZ resistance, a xenograft model of MM-niche interactions was developed. Each mouse carried 2 subcutaneous tumors consisting of H929 Luc+ cells and either WT (anterior tumors) or Smo-KO stroma (posterior tumors). Mice were treated with IRX (10 mg/kg i.p. daily), BTZ (0.5 mg/kg i.p. twice weekly), or a combination of both. The growth of tumors bearing WT or Smo-KO stroma was not different in untreated or IRX-treated groups (FIGS. 9 and 10). […] While some tumors in the treatment group receiving combined IRX and BTZ appeared to have regressed completely, even after anatomical study, this was not the case for all the mice in this group.

[2] = test system: H929 cells and CD138+ primary MM cells; test: qRT-PCR of B cell and PC markers in MM cells, liquid or BM stroma co-culture; format: cell-based, human
Experimental: FIG. 3A-H depicts the relative concentration of plasma markers BCL6 (FIG. 3A and E), BLIMP-1 (FIG. 3B and F), XBPS-1 (FIG. 3C and G), and CHOP (FIG. 3D and H) in multiple myeloma (MM) cell lines H929 (FIG. 3A-D) or CD138+ MM cells from three different patient samples (FIG. 3E-H) incubated for 5 days either in the absence of stroma (Liquid), with or without AGN (RA receptor antagonist AGN194310, 1 μM), or co-cultured with BM mesenchymal cells (Stroma), with or without R115 (CYP26 inhibitor R115866, 1 μM) or IRX (CYP26-resistant retinoid IRX5183, 1 μM). Expression in untreated liquid conditions was set at 1. Data are representative of 3 independent experiments with similar results and represent the mean ±SEM. *P≤0.05 and **P≤0.01, by repeated-measures 1-way ANOVA for determination of statistical significance between groups; P values were corrected for multiple comparisons using Dunnett's test. Ctrl, control; max, maximum.
Coculture experiments. 24-well plates were coated with 0.1% gelatin in PBS for 30 min at 37° C. The gelatin solution was removed, and the stromal cells were cultured overnight at a density of 5×10^4 cells/well to obtain a confluent monolayer. At that time, MM cell lines or primary MM cells (1×10^5 in 2 ml) were added to the stroma cultures. The stroma cocultures were incubated at 37° C. in RPMI containing 10% FCS, L-glutamine, and P/S, with or without AGN194310 (1 μM for 5 days), R115866 (1 μM for 5 days), IRX5183 (1 μM for 5 days), or BTZ (2.5 nM for 48 hr).
qRT-PCR. Total RNA was extracted using the RNeasy Mini Kit (QIAGEN) according to the manufacturer's instructions. cDNA was synthesized by reverse transcription using the iScript cDNA Synthesis Kit (Bio-Rad). qRT-PCR was performed with iTaq SYBR Green Supermix (Bio-Rad) using sequence specific primers. Gene expression was normalized to GAPDH, and relative quantification was calculated using ΔΔCt. All experiments were performed in duplicate and run on the Bio-Rad CFX96 machine.
The BM microenvironment (also called “niche”) limits PC differentiation by modulating retinoid signaling. A population of MM progenitors, phenotypically similar to B cells, is intrinsically resistant to BTZ and contributes to MRD and relapse. To investigate whether the BM niche plays a role in determining the phenotype of MM cells, the mRNA expression of B cell and PC markers in MM H929 cell lines (FIG. 3A-D) and MM CD138+ primary cells (FIG. 3E-H) was analyzed following co-culture with mouse BM stroma using human-specific primers. […] In contrast, co-culture of MM cells with BM stroma decreased the mRNA expression of B lymphocyte-induced maturation protein 1 (BLIMP1) and spliced X box-binding protein 1 (XBP1s) (FIG. 3B, C, F, G), which are critical mediators of PC differentiation.
The BM niche regulates hematopoietic stem cell (HSC) differentiation by expressing the retinoid-inactivating enzyme CYP26. CYP26 enzymes were highly expressed in BM mesenchymal cells, while their expression was barely detectable in MM cells. Since retinoid signaling promotes PC differentiation and potentiates Ig secretion, it was determined whether stromal CYP26 is responsible for inducing a B cell phenotype in MM cells. To this end, co-culture conditions were treated with the CYP26 inhibitor R115866 (R115) or the CYP26-resistant RA receptor α-selective (RARα-selective) retinoid IRX5183 (IRX).

Compound: CC1(C)CCC(C)(C)c2c1cc(C(=O)Nc1cc(F)c(C(=O)O)c(F)c1)c(O)c2Cl [IRX5183]
- agonist activity (transactivation) (RARα): specifically activates RARα
- growth of tumors bearing WT versus Smo-KO stroma ([1]; IRX 10 mg/kg i.p. daily): not different
- tumor response (bioluminescence) ([1]; combination of IRX and BTZ, WT or Smo-KO stroma): significant and equivalent response, regardless of the phenotype of the stromal compartment
- expression of differentiation markers by qRT-PCR or flow cytometry ([2]; liquid conditions compared with BM stroma): induced comparable changes, irrespective of the presence or absence of BM stroma
- mRNA expression of B cell and PC markers (BCL6, BLIMP1, XBP1s, CHOP) ([2]; stroma co-cultures, 1 μM for 5 days): restored all markers to levels comparable to those of liquid control conditions
